In publication PMC5218480 (PLoS ONE, 2017):

Test system: MV-4-11 cells
Experiment: Gene expression microarray analysis (Affymetrix PrimeView) and GSEA
Format: cell-based, human
Set-up: RFU PODN (11730768_x_at) / Fold change /veh PODN (11730768_x_at) / RFU LINC00158 (11744669_a_at) / Fold change /veh LINC00158 (11744669_a_at) / RFU DUSP10 (11751237_a_at) / Fold change /veh DUSP10 (11751237_a_at) / RFU ID3 (11757404_x_at) / Fold change /veh ID3 (11757404_x_at) / RFU PLEKHG5 (11737974_s_at) / Fold change /veh PLEKHG5 (11737974_s_at) / RFU LRRC4B (11730491_at) / Fold change /veh LRRC4B (11730491_at) / RFU GIMAP4 (11747438_a_at) / Fold change /veh GIMAP4 (11747438_a_at) / RFU KRT8 (11758183_x_at) / Fold change /veh KRT8 (11758183_x_at) / RFU CNN1 (11734310_a_at) / Fold change /veh CNN1 (11734310_a_at) / RFU VPS37D (11726825_at) / Fold change /veh VPS37D (11726825_at) / RFU C10orf10 (11716522_x_at) / Fold change /veh C10orf10 (11716522_x_at) / RFU KIR2DL2 /// KIR2DL4 /// KIR2DL5A /// KIR2DL5B /// KIR2DS1 /// KIR2DS2 /// KIR2DS3 /// KIR2DS4 /// KIR3DL3 /// KIR3DL3 /// KIR3DS1 (11738374_at) / Fold change /veh KIR2DL2 /// KIR2DL4 /// KIR2DL5A /// KIR2DL5B /// KIR2DS1 /// KIR2DS2 /// KIR2DS3 /// KIR2DS4 /// KIR3DL3 /// KIR3DL3 /// KIR3DS1 (11738374_at) / RFU C1QL1 (11718748_at) / Fold change /veh C1QL1 (11718748_at) / RFU TMPRSS4 (11747572_a_at) / Fold change /veh TMPRSS4 (11747572_a_at) / RFU HAMP (11756126_x_at) / Fold change /veh HAMP (11756126_x_at) / RFU RNFT2 (11725882_a_at) / Fold change /veh RNFT2 (11725882_a_at) / RFU NR4A2 (11747474_a_at) / Fold change /veh NR4A2 (11747474_a_at) / RFU ABCC12 (11746883_a_at) / Fold change /veh ABCC12 (11746883_a_at) / RFU TMEM136 (11760407_x_at) / Fold change /veh TMEM136 (11760407_x_at) / RFU CLDN22 /// WWC2 (11732394_at) / Fold change /veh CLDN22 /// WWC2 (11732394_at) / RFU HLA-DPB1 (11760878_x_at) / Fold change /veh HLA-DPB1 (11760878_x_at) / RFU SPINT1 (11716480_a_at) / Fold change /veh SPINT1 (11716480_a_at) / RFU GAP43 (11754022_s_at) / Fold change /veh GAP43 (11754022_s_at) / RFU A4GNT (11735810_at) / Fold change /veh A4GNT (11735810_at) / RFU PRB3 (11715151_x_at) / Fold change /veh PRB3 (11715151_x_at) / RFU TUBB4B (11761932_at) / Fold change /veh TUBB4B (11761932_at) / RFU CAPN14 (11732068_a_at) / Fold change /veh CAPN14 (11732068_a_at) / RFU TMCC2 (11721928_a_at) / Fold change /veh TMCC2 (11721928_a_at) / RFU IRGQ (11745062_a_at) / Fold change /veh IRGQ (11745062_a_at) / RFU FAM174B (11720279_a_at) / Fold change /veh FAM174B (11720279_a_at) / RFU TMPRSS4 (11748680_a_at) / Fold change /veh TMPRSS4 (11748680_a_at) / RFU FAM212B (11763350_a_at) / Fold change /veh FAM212B (11763350_a_at) / RFU PLEKHG5 (11743358_a_at) / Fold change /veh PLEKHG5 (11743358_a_at) / RFU ZSCAN30 (11745921_a_at) / Fold change /veh ZSCAN30 (11745921_a_at) / RFU CMKLR1 (11741424_a_at) / Fold change /veh CMKLR1 (11741424_a_at) / RFU LOC101060620 /// MAPK8IP1 (11723275_at) / Fold change /veh LOC101060620 /// MAPK8IP1 (11723275_at) / RFU SPTSSB (11747773_x_at) / Fold change /veh SPTSSB (11747773_x_at) / RFU PRSS12 (11739890_at) / Fold change /veh PRSS12 (11739890_at) / RFU BIN1 (11741810_x_at) / Fold change /veh BIN1 (11741810_x_at) / RFU WNT11 (11732464_a_at) / Fold change /veh WNT11 (11732464_a_at) / RFU C10orf10 (11716521_a_at) / Fold change /veh C10orf10 (11716521_a_at) / RFU C5orf56 (11738089_at) / Fold change /veh C5orf56 (11738089_at) / RFU CYB561 (11721691_x_at) / Fold change /veh CYB561 (11721691_x_at) / RFU ANKRD19P (11752326_a_at) / Fold change /veh ANKRD19P (11752326_a_at) / RFU OR2T12 /// OR2T33 /// OR2T8 (11738714_s_at) / Fold change /veh OR2T12 /// OR2T33 /// OR2T8 (11738714_s_at) / RFU VCAN (11748164_a_at) / Fold change /veh VCAN (11748164_a_at) / RFU JSRP1 (11732532_at) / Fold change /veh JSRP1 (11732532_at) / RFU KRTAP10-11 (11738290_x_at) / Fold change /veh KRTAP10-11 (11738290_x_at) / RFU MYO3A (11730013_a_at) / Fold change /veh MYO3A (11730013_a_at) / RFU EBF3 (11725865_a_at) / Fold change /veh EBF3 (11725865_a_at) / RFU CAMK2N1 (11719241_x_at) / Fold change /veh CAMK2N1 (11719241_x_at) / RFU C5orf56 (11738088_a_at) / Fold change /veh C5orf56 (11738088_a_at) / RFU OLFML3 (11715873_a_at) / Fold change /veh OLFML3 (11715873_a_at) / RFU LOC100653217 /// NTM (11731650_a_at) / Fold change /veh LOC100653217 /// NTM (11731650_a_at) / RFU MAPK11 (11762145_a_at) / Fold change /veh MAPK11 (11762145_a_at) / RFU FIZ1 (11724087_x_at) / Fold change /veh FIZ1 (11724087_x_at) / RFU OASL (11726364_x_at) / Fold change /veh OASL (11726364_x_at) / RFU SOX15 (11748057_x_at) / Fold change /veh SOX15 (11748057_x_at) / RFU CD79A (11719716_a_at) / Fold change /veh CD79A (11719716_a_at) / RFU HIST1H1D (11736915_at) / Fold change /veh HIST1H1D (11736915_at) / RFU CASKIN2 (11723855_a_at) / Fold change /veh CASKIN2 (11723855_a_at) / RFU LOC730098 (11760151_x_at) / Fold change /veh LOC730098 (11760151_x_at) / RFU OR4N2 (11742367_at) / Fold change /veh OR4N2 (11742367_at) / RFU PRRT2 (11749266_a_at) / Fold change /veh PRRT2 (11749266_a_at) / RFU SNX32 (11753110_a_at) / Fold change /veh SNX32 (11753110_a_at) / RFU CDHR5 (11726645_a_at) / Fold change /veh CDHR5 (11726645_a_at) / RFU RCAN1 (11760418_a_at) / Fold change /veh RCAN1 (11760418_a_at) / RFU FAM167A (11723789_a_at) / Fold change /veh FAM167A (11723789_a_at) / RFU FAM26E (11764081_at) / Fold change /veh FAM26E (11764081_at) / RFU ISYNA1 (11749810_s_at) / Fold change /veh ISYNA1 (11749810_s_at) / RFU ACY1 (11761880_at) / Fold change /veh ACY1 (11761880_at) / RFU 11764098_at / Fold change /veh 11764098_at / RFU SAMD14 (11745864_x_at) / Fold change /veh SAMD14 (11745864_x_at) / RFU NPB (11741838_a_at) / Fold change /veh NPB (11741838_a_at) / RFU TMPRSS6 (11731388_a_at) / Fold change /veh TMPRSS6 (11731388_a_at) / RFU KRTAP10-2 (11738614_at) / Fold change /veh KRTAP10-2 (11738614_at) / RFU ARHGAP8 /// PRR5-ARHGAP8 (11727945_x_at) / Fold change /veh ARHGAP8 /// PRR5-ARHGAP8 (11727945_x_at) / RFU KRTAP5-7 /// NADSYN1 (11734609_at) / Fold change /veh KRTAP5-7 /// NADSYN1 (11734609_at) / RFU RASL12 (11751679_a_at) / Fold change /veh RASL12 (11751679_a_at) / RFU CDKN2B (11736163_a_at) / Fold change /veh CDKN2B (11736163_a_at) / RFU PRF1 (11729649_at) / Fold change /veh PRF1 (11729649_at) / RFU, ZNF638 /// ZNF638-IT1 / Fold change vs veh, ZNF638 /// ZNF638-IT1 / RFU, PANK3 / Fold change vs veh, PANK3 / RFU, SH3YL1 / Fold change vs veh, SH3YL1 / RFU, ZEB2 / Fold change vs veh, ZEB2 / RFU, NRIP1 / Fold change vs veh, NRIP1 / RFU, PTTG1IP / Fold change vs veh, PTTG1IP / RFU, CAPN2 / Fold change vs veh, CAPN2 / RFU, MED14 / Fold change vs veh, MED14 / RFU, SNORA58 / Fold change vs veh, SNORA58 / RFU, C1orf63 / Fold change vs veh, C1orf63 / RFU, LRRFIP1 / Fold change vs veh, LRRFIP1 / RFU, NDUFAF7 / Fold change vs veh, NDUFAF7 / RFU, SLC12A2 / Fold change vs veh, SLC12A2 / RFU, IBTK / Fold change vs veh, IBTK / RFU, ESF1 / Fold change vs veh, ESF1 / Fold change vs veh, TMEM50B / RFU, TAOK1 / Fold change vs veh, TAOK1 / RFU, ACBD3 / Fold change vs veh, ACBD3 / RFU, TMA16 / Fold change vs veh, TMA16 / RFU, RWDD3 / Fold change vs veh, RWDD3 / RFU, BCAT1 / Fold change vs veh, BCAT1 / RFU, EDEM3 / Fold change vs veh, EDEM3 / RFU, TMEM33 / Fold change vs veh, TMEM33 / RFU, WDR75 / Fold change vs veh, WDR75 / RFU, AHCTF1 / Fold change vs veh, AHCTF1 / RFU, TFRC / Fold change vs veh, TFRC / RFU, ZDHHC17 / Fold change vs veh, ZDHHC17 / RFU, NOM1 / Fold change vs veh, NOM1 / RFU, ARL8B / Fold change vs veh, ARL8B / RFU, ZBTB11 / Fold change vs veh, ZBTB11 / RFU, TAMM41 / Fold change vs veh, TAMM41 / RFU, KIAA1704 /// LOC100996395 / Fold change vs veh, KIAA1704 /// LOC100996395 / RFU, ING1 / Fold change vs veh, ING1 / RFU, TRMT61B / Fold change vs veh, TRMT61B / RFU, FUBP3 / Fold change vs veh, FUBP3 / RFU, TP53 / Fold change vs veh, TP53 / RFU, TNKS2 / Fold change vs veh, TNKS2 / RFU, ZFP14 / Fold change vs veh, ZFP14 / RFU, ACTR2 / Fold change vs veh, ACTR2 / RFU, PPP3R1 / Fold change vs veh, PPP3R1 / RFU, PIK3R1 / Fold change vs veh, PIK3R1 / RFU, HNRNPA1 / Fold change vs veh, HNRNPA1 / RFU, RNF170 / Fold change vs veh, RNF170 / RFU, ZNF28 / Fold change vs veh, ZNF28 / RFU, RNGTT / Fold change vs veh, RNGTT / RFU, OGT / Fold change vs veh, OGT / RFU, BRD1 / Fold change vs veh, BRD1 / RFU, MARS / Fold change vs veh, MARS / RFU, ZNF655 / Fold change vs veh, ZNF655 / RFU, FAHD1 / Fold change vs veh, FAHD1 / RFU, BDP1 / Fold change vs veh, BDP1 / RFU, LRRCC1 / Fold change vs veh, LRRCC1 / RFU, ARID1A / Fold change vs veh, ARID1A / RFU, ZNF146 / Fold change vs veh, ZNF146 / RFU, ZNF330 / Fold change vs veh, ZNF330 / RFU, GPN3 / Fold change vs veh, GPN3 / RFU, C9orf123 / Fold change vs veh, C9orf123 / RFU, N4BP2L2 / Fold change vs veh, N4BP2L2 / RFU, ARFIP1 / Fold change vs veh, ARFIP1 / RFU, FAM179B / Fold change vs veh, FAM179B / RFU, BCL10 / Fold change vs veh, BCL10 / RFU, UHRF1BP1L / Fold change vs veh, UHRF1BP1L / RFU, BET1 / Fold change vs veh, BET1 / RFU, CNOT2 / Fold change vs veh, CNOT2 / RFU, ZNF268 / Fold change vs veh, ZNF268 / Fold change vs veh, ZNF507 / RFU, DGCR2 / Fold change vs veh, DGCR2 / RFU, WDSUB1 / Fold change vs veh, WDSUB1 / Fold change vs veh, HSP90B1 /// MIR3652 / RFU, ADSS / Fold change vs veh, ADSS / RFU, GK / Fold change vs veh, GK / RFU, ZNF148 / Fold change vs veh, ZNF148 / RFU, TAF9 / Fold change vs veh, TAF9 / RFU, SLC1A5 / Fold change vs veh, SLC1A5 / RFU, SLMO2 / Fold change vs veh, SLMO2 / RFU, ABCC4 / Fold change vs veh, ABCC4 / RFU, LOC101060439 /// RAP1B / Fold change vs veh, LOC101060439 /// RAP1B / RFU, RFX7 / Fold change vs veh, RFX7 / RFU, GTPBP10 / Fold change vs veh, GTPBP10 / RFU, CNEP1R1 / Fold change vs veh, CNEP1R1 / RFU, BIVM-ERCC5 /// ERCC5 / Fold change vs veh, BIVM-ERCC5 /// ERCC5 / RFU, ILF3 / Fold change vs veh, ILF3 / RFU 11762660_at / Fold change /veh 11762660_at / RFU VCAN (11757783_s_at) / Fold change /veh VCAN (11757783_s_at) / RFU DDX43 (11728927_at) / Fold change /veh DDX43 (11728927_at) / RFU KRT8 (11758188_x_at) / Fold change /veh KRT8 (11758188_x_at) / RFU NKD1 (11759106_at) / Fold change /veh NKD1 (11759106_at) / RFU SRD5A1 (11742802_a_at) / Fold change /veh SRD5A1 (11742802_a_at) / RFU TPSAB1 /// TPSB2 (11721975_s_at) / Fold change /veh TPSAB1 /// TPSB2 (11721975_s_at) / RFU GSTM3 (11746129_a_at) / Fold change /veh GSTM3 (11746129_a_at) / RFU IL23R (11737362_x_at) / Fold change /veh IL23R (11737362_x_at) / RFU TMEM51 (11727254_a_at) / Fold change /veh TMEM51 (11727254_a_at) / RFU PIWIL2 (11732686_x_at) / Fold change /veh PIWIL2 (11732686_x_at) / RFU ORM1 (11744905_x_at) / Fold change /veh ORM1 (11744905_x_at) / RFU CCDC152 (11743942_at) / Fold change /veh CCDC152 (11743942_at) / RFU ECM1 (11717891_a_at) / Fold change /veh ECM1 (11717891_a_at) / RFU IL23R (11748794_a_at) / Fold change /veh IL23R (11748794_a_at) / RFU TNFAIP8L3 (11732012_x_at) / Fold change /veh TNFAIP8L3 (11732012_x_at) / RFU MBOAT4 (11741988_at) / Fold change /veh MBOAT4 (11741988_at) / RFU 11764193_at / Fold change /veh 11764193_at / RFU TMEM53 (11763286_at) / Fold change /veh TMEM53 (11763286_at) / RFU MAGEB2 (11727129_at) / Fold change /veh MAGEB2 (11727129_at) / RFU TMEM200A (11744735_a_at) / Fold change /veh TMEM200A (11744735_a_at) / RFU CCDC152 (11751479_a_at) / Fold change /veh CCDC152 (11751479_a_at) / RFU FAM211A (11726209_a_at) / Fold change /veh FAM211A (11726209_a_at) / RFU RGS16 (11746705_a_at) / Fold change /veh RGS16 (11746705_a_at) / RFU VCAN (11755009_s_at) / Fold change /veh VCAN (11755009_s_at) / RFU RHOB (11743442_s_at) / Fold change /veh RHOB (11743442_s_at) / RFU RGS16 (11720943_a_at) / Fold change /veh RGS16 (11720943_a_at) / RFU RGS16 (11720944_at) / Fold change /veh RGS16 (11720944_at) / RFU, VPS4B / Fold change vs veh, VPS4B / RFU, CREB1 / Fold change vs veh, CREB1 / RFU, DNAJC13 / Fold change vs veh, DNAJC13 / RFU, GNAQ / Fold change vs veh, GNAQ / RFU, CDK5R1 / Fold change vs veh, CDK5R1 / RFU, ZRANB3 / Fold change vs veh, ZRANB3 / RFU, CUL4A / Fold change vs veh, CUL4A / RFU, CCNY / Fold change vs veh, CCNY / RFU, UFL1 / Fold change vs veh, UFL1 / RFU, COG3 / Fold change vs veh, COG3 / RFU, DIAPH2 / Fold change vs veh, DIAPH2 / RFU, SKA2 / Fold change vs veh, SKA2 / RFU, AFF3 / Fold change vs veh, AFF3 / RFU, LMF1 / Fold change vs veh, LMF1 / RFU, IPO11 / Fold change vs veh, IPO11 / RFU, DFFB / Fold change vs veh, DFFB / RFU, FOXP1 / Fold change vs veh, FOXP1 / RFU, CARD8 / Fold change vs veh, CARD8 / RFU, STRN3 / Fold change vs veh, STRN3 / RFU, ADK / Fold change vs veh, ADK / RFU, RASSF2 / Fold change vs veh, RASSF2 / RFU, WIPF1 / Fold change vs veh, WIPF1 / RFU, LARP1B / Fold change vs veh, LARP1B / RFU, RASA1 / Fold change vs veh, RASA1 / RFU, RB1 / Fold change vs veh, RB1 / RFU, PPFIA1 / Fold change vs veh, PPFIA1 / RFU, MAT2A / Fold change vs veh, MAT2A / RFU, CCT5 / Fold change vs veh, CCT5 / RFU, WDR92 / Fold change vs veh, WDR92 / RFU, CUX1 / Fold change vs veh, CUX1 / RFU, TTC7A / Fold change vs veh, TTC7A / RFU, TMEM135 / Fold change vs veh, TMEM135 / RFU, DEPTOR / Fold change vs veh, DEPTOR / RFU, CPM / Fold change vs veh, CPM / RFU, DNAJB6 / Fold change vs veh, DNAJB6 / RFU, CACNA2D3 / Fold change vs veh, CACNA2D3 / RFU, DTX4 / Fold change vs veh, DTX4 / RFU, TFCP2 / Fold change vs veh, TFCP2 / RFU, GMCL1 /// GMCL1P1 / Fold change vs veh, GMCL1 /// GMCL1P1 / RFU, AEBP2 / Fold change vs veh, AEBP2 / RFU, SNHG1 /// SNORD22 /// SNORD25 /// SNORD26 /// SNORD27 /// SNORD28 /// SNORD29 /// SNORD31 / Fold change vs veh, SNHG1 /// SNORD22 /// SNORD25 /// SNORD26 /// SNORD27 /// SNORD28 /// SNORD29 /// SNORD31 / Fold change (Aza/veh), C12orf56 (ProbeSet 11735607_a_at) / Fold change (ACY-1035/veh), C12orf56 (ProbeSet 11735607_a_at) / Fold change (Aza/veh), FGFR1OP (ProbeSet 11751329_s_at) / Fold change (ACY-1035/veh), FGFR1OP (ProbeSet 11751329_s_at) / Fold change (Aza/veh), VPS36 (ProbeSet 11739960_a_at) / Fold change (ACY-1035/veh), VPS36 (ProbeSet 11739960_a_at) / RFU SYPL1 (11715823_x_at) / Fold change /veh SYPL1 (11715823_x_at) / RFU IGFBP7 (11715501_s_at) / Fold change /veh IGFBP7 (11715501_s_at) / RFU REEP3 (11722064_at) / Fold change /veh REEP3 (11722064_at) / RFU IGLL1 (11728026_x_at) / Fold change /veh IGLL1 (11728026_x_at): dose or concentration left out as unconfirmed
Settings: ProbeSet 11720154_at; LIST B

Nc1ccc(-c2cccs2)cc1NC(=O)c1ccc2c(c1)cc(C1CC1)n2CCN1CCOCC1 [ACY-1035]
RFU, NRIP1: 473.81 RFU
